Reference: patent US20060030600A1, “Dual NK1/NK3 receptor antagonists for the treatment of schizophrenia” (priority 2004, published 2006)

Tests used:
human NK1 receptor = human NK1 receptor (Homo sapiens, UniProt P25103); experiment: NK1 receptor affinity, [3H]substance P binding; details: human NK1 receptors in CHO cells, [3H]substance P 0.6 nM; read-out: pki NK1 (converted)
Procedure: The affinity of test compounds for the NK1 receptor was evaluated at human NK1 receptors in CHO cells infected with the human NK1 receptor (using the Semliki virus expression system) and radiolabelled with [^3H]substance P (final concentration 0.6 nM). Binding assays were performed in HEPES buffer (50 mM, pH 7.4) containing BSA (0.04%) leupeptin (16.8 μg/ml), MnCl2 (3mM) and phosphoramidon (2 μM). Binding assays consisted of 250 μl of membrane suspension (approximately 1.5 μg/well in a 96 well plate), […] of buffer of displacing agent and 125 μl of [^3H]substance P. Displacement curves were determined with at least seven concentrations of the compound. The assay tubes were incubated for 60 min at room temperature after which time the tube contents were rapidly filtered under vacuum through GF/C filters presoaked for 60 min with PEI (0.3%) with 3×1 ml washes of HEPES buffer (50 mM, pH 7.4). The radioactivity retained on the filters was measured by scintillation counting. All assays were performed in duplicate in at least 2 separate experiments.

[1] = molecular target: T1, Recombinant human NK3 (hNK3) receptor (Homo sapiens, UniProt P29371); experiment: NK3 receptor affinity, [3H]SR142801 binding; details: hNK3 receptor membranes, [3H]SR142801 0.3 nM; read-out: pki NK3 (converted)
T1 construct: expressed in transfected cells
T1 sequence (P29371 1-465): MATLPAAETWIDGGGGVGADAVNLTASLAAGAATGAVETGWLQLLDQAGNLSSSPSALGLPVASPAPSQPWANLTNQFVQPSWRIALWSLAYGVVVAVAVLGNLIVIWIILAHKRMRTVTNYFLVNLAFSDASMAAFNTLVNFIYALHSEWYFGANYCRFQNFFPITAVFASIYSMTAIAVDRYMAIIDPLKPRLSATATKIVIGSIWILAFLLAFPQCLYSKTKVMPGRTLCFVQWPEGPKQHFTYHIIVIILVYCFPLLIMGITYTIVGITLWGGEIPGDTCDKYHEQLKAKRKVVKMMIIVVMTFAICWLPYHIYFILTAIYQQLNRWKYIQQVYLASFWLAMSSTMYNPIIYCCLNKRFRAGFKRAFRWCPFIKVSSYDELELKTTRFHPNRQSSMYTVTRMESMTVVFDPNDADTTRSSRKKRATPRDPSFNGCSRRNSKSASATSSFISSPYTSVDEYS
Procedure: Recombinant human NK3 (hNK3) receptor affinity was determined in a 96 well plate assay, using [^3H]SR142801 (final concentration 0.3 nM) to radiolabel the hNK3 receptor in the presence of 10 concentrations of competing compound or buffer. Non specific binding was determined using 10 μM SB222200. Assay buffer consisted of Tris-HCl (50 mM, pH 7.4), BSA (0.1%), MnCl2 (4 mM) and phosphoramidon (1 μM). Membrane preparations of hNK3 receptors (approximately 2.5 μg/well in a 96 well plate) were used to initiate the incubation for 90 min at room temperature. This assay was terminated by rapid filtration under vacuum through GF/C filters, presoaked for 90 min with PEI (0.3%), with 3×0.5 ml washes of ice-cold Tris buffer (50 mM, pH 7.4) containing 0.1% BSA. The radioactivity retained on the filters was measured by scintillation counting. All assays were performed in duplicate in at least two separate experiments.

[2] = phase II trial, cited from earlier work

Chain of human NK1 receptor (P25103 whole entry): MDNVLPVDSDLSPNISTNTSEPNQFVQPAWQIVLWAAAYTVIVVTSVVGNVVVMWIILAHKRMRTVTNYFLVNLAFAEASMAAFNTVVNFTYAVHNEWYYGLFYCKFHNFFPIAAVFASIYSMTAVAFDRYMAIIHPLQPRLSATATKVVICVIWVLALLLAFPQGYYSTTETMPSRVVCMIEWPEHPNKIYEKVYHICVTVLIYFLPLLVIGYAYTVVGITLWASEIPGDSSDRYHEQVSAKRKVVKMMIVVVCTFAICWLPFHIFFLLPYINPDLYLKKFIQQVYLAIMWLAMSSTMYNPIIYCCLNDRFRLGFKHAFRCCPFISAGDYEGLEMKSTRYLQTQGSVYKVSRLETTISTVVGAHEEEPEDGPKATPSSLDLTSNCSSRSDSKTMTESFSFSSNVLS

Ki (human NK1 receptor) | Ki [1] | Compound | activity on positive symptoms of schizophrenia ([2]; altered behaviour, delusion, hallucinations, extreme emotions, excited motor activity, incoherent speech) | activity on negative symptoms of schizophrenia ([2]; depression, anhedonia, social isolation or memory and attention deficits)
1.1 nM | 6.46 nM | Cc1cc(F)ccc1-c1cc(C2CCN(S(C)(=O)=O)CC2)ncc1N(C)C(=O)C(C)(C)c1cc(C(F)(F)F)cc(C(F)(F)F)c1 [Example 11, 2-(3,5-Bis-trifluoromethyl-phenyl)-N-[4-(4-fluoro-2-methyl-phenyl)-1′-methanesulfonyl-1′,2′,3′,4′,5′,6′-hexahydro-[2,4′]bipyridinyl-5-yl]-N-methyl-isobutyramide] |  | 
0.589 nM | 6.76 nM | Cc1cc(F)ccc1-c1cc(C2=CCS(=O)(=O)CC2)ncc1N(C)C(=O)C(C)(C)c1cc(C(F)(F)F)cc(C(F)(F)F)c1 [Example 15, 2-(3,5-Bis-trifluoromethyl-phenyl)-N-[6-(1,1-dioxo-1,2,3,6-tetrahydro-1λ^6-thiopyran-4-yl)-4-(4-fluoro-2-methyl-phenyl)-pyridin-3-yl]-N-methyl-isobutyramide] |  | 
1.55 nM | 11.5 nM | Cc1cc(F)ccc1-c1cc(-c2ccnc(CO)c2)ncc1N(C)C(=O)C(C)(C)c1cc(C(F)(F)F)cc(C(F)(F)F)c1 [Example 9, 2-(3,5-Bis-trifluoromethyl-phenyl)-N-[4-(4-fluoro-2-methyl-phenyl)-2′-hydroxymethyl-[2,4′]bipyridinyl-5-yl]-N-methyl-isobutyramide] |  | 
0.617 nM | 2.63 nM | Cc1cc(F)ccc1-c1cc(C2=CCN(S(C)(=O)=O)CC2)ncc1N(C)C(=O)C(C)(C)c1cc(C(F)(F)F)cc(C(F)(F)F)c1 [Example 10, 2-(3,5-Bis-trifluoromethyl-phenyl)-N-[4-(4-fluoro-2-methyl-phenyl)-1′-methanesulfonyl-1′,2′,3′,6′-tetrahydro-[2,4′]bipyridinyl-5-yl]-N-methyl-isobutyramide] |  | 
1.62 nM | 14.5 nM | CC(=O)N1CCCC(c2cc(-c3ccc(F)cc3C)c(N(C)C(=O)C(C)(C)c3cc(C(F)(F)F)cc(C(F)(F)F)c3)cn2)C1 (racemic) [Example 13, (RS)-N-[1′-Acetyl-4-(4-fluoro-2-methyl-phenyl)-1′,2′,3′,4′,5′,6′-hexahydro-[2,3′]bipyridinyl-5-yl]-2-(3,5-bis-trifluoromethyl-phenyl)-N-methyl-isobutyramide] |  | 
0.589 nM | 21.4 nM | Cc1cc(F)ccc1-c1cc(C2CCCN(S(C)(=O)=O)C2)ncc1N(C)C(=O)C(C)(C)c1cc(C(F)(F)F)cc(C(F)(F)F)c1 (racemic) [Example 12, (RS)-2-(3,5-Bis-trifluoromethyl-phenyl)-N-[4-(4-fluoro-2-methyl-phenyl)-1′-methanesulfonyl-1′,2′,3′,4′,5′,6′-hexahydro-[2,3′]bipyridinyl-5-yl]-N-methyl-isobutyramide] |  | 
1.15 nM | 14.1 nM | Cc1cc(F)ccc1-c1cc(C2=CCSCC2)ncc1N(C)C(=O)C(C)(C)c1cc(C(F)(F)F)cc(C(F)(F)F)c1 [Example 14, 2-(3,5-Bis-trifluoromethyl-phenyl)-N-[6-(3,6-dihydro-2H-thiopyran-4-yl)-4-(4-fluoro-2-methyl-phenyl)-pyridin-3-yl]-N-methyl-isobutyramide] |  | 
1.82 nM | 6.17 nM | Cc1cc(F)ccc1-c1cc(-c2cncc(CO)c2)ncc1N(C)C(=O)C(C)(C)c1cc(C(F)(F)F)cc(C(F)(F)F)c1 [Example 8, 2-(3,5-Bis-trifluoromethyl-phenyl)-N-[4-(4-fluoro-2-methyl-phenyl)-5′-hydroxymethyl-[2,3′]bipyridinyl-5-yl]-N-methyl-isobutyramide] |  | 
1.2 nM | 6.92 nM | Cc1cc(F)ccc1-c1cc(-c2cccc(CO)c2)ncc1N(C)C(=O)C(C)(C)c1cc(C(F)(F)F)cc(C(F)(F)F)c1 [Example 7, 2-(3,5-Bis-trifluoromethyl-phenyl)-N-[4-(4-fluoro-2-methyl-phenyl)-6-(3-hydroxymethyl-phenyl)-pyridin-3-yl]-N-methyl-isobutyramide] |  | 
1.38 nM | 16.6 nM | Cc1cc(F)ccc1-c1cc(C2CCS(=O)(=O)CC2)ncc1N(C)C(=O)C(C)(C)c1cc(C(F)(F)F)cc(C(F)(F)F)c1 [Example 16, 2-(3,5-Bis-trifluoromethyl-phenyl)-N-[6-(1,1-dioxo-hexahydro-1λ^6-thiopyran-4-yl)-4-(4-fluoro-2-methyl-phenyl)-pyridin-3-yl]-N-methyl-isobutyramide] |  | 

Further lines, the compound ahead of its results:

Compound | Ki (human NK1 receptor) | Ki [1] | activity on positive symptoms of schizophrenia ([2]; altered behaviour, delusion, hallucinations, extreme emotions, excited motor activity, incoherent speech) | activity on negative symptoms of schizophrenia ([2]; depression, anhedonia, social isolation or memory and attention deficits)
Cc1cc(F)ccc1-c1cc(-c2ccc[n+]([O-])c2)ncc1N(C)C(=O)C(C)(C)c1cc(C(F)(F)F)cc(C(F)(F)F)c1 [Example 6, 2-(3,5-Bis-trifluoromethyl-phenyl)-N-[4-(4-fluoro-2-methyl-phenyl)-1′-oxy-[2,3′]bipyridinyl-5-yl]-N-methyl-isobutyramide] | 0.977 nM | 24.5 nM |  | 
Cc1cc(F)ccc1-c1cc(OC[C@@H]2CCCN2)ncc1N(C)C(=O)C(C)(C)c1cc(C(F)(F)F)cc(C(F)(F)F)c1 [Example 3, (S)-2-(3,5-Bis-trifluoromethyl-phenyl)-N-[4-(4-fluoro-2-methyl-phenyl)-6-(pyrrolidin-2-ylmethoxy)-pyridin-3-yl]-N-methyl-isobutyramide] | 0.851 nM | 23.4 nM |  | 
CN(C(=O)C(C)(C)c1cc(C(F)(F)F)cc(C(F)(F)F)c1)c1cnc(OC(CO)CO)cc1-c1ccccc1Cl [Example 2, 2-(3,5-Bis-trifluoromethyl-phenyl)-N-[4-(2-chloro-phenyl)-6-(2-hydroxy-1-hydroxymethyl-ethoxy)-pyridin-3-yl]-N-methyl-isobutyramide] | 1.23 nM | 9.12 nM |  | 
CN(C(=O)C(C)(C)c1cc(C(F)(F)F)cc(C(F)(F)F)c1)c1cnc(OCCO)cc1-c1ccccc1Cl [Example 1, 2-(3,5-Bis-trifluoromethyl-phenyl)-N-[4-(2-chloro-phenyl)-6-(2-hydroxy-ethoxy)-pyridin-3-yl]-N-methyl-isobutyramide] | 0.562 nM | 19.5 nM |  | 
Cc1cc(F)ccc1-c1cc(SCCO)ncc1N(C)C(=O)C(C)(C)c1cc(C(F)(F)F)cc(C(F)(F)F)c1 [Example 4, 2-(3,5-Bis-trifluoromethyl-phenyl)-N-[4-(4-fluoro-2-methyl-phenyl)-6-(2-hydroxy-ethylsulfanyl)-pyridin-3-yl]-N-methyl-isobutyramide] | 2.34 nM | 8.51 nM |  | 
CC(=O)N(C)C1(c2ccccc2)CCN(CCC[C@]2(c3ccc(Cl)c(Cl)c3)CCCN(C(=O)c3ccccc3)C2)CC1 [SR 142,801, Osanetant] |  |  | active on positive symptoms of schizophrenia | inactive in the treatment of negative symptoms
Cc1cc(F)ccc1-c1cc(-c2cccnc2)ncc1N(C)C(=O)C(C)(C)c1cc(C(F)(F)F)cc(C(F)(F)F)c1 [Example 5, 2-(3,5-Bis-trifluoromethyl-phenyl)-N-[4-(4-fluoro-2-methyl-phenyl)-[2,3′]bipyridinyl-5-yl]-N-methyl-isobutyramide] | 1.29 nM | 16.2 nM |  | 
